Source: patent US20110275576A1, “Carbohydrate-Cyclopamine Conjugates as Anticancer Agents” (Utah State University, priority 2009, published 2011)
Where two headings read alike, the source gives them in different places.

System: A549 cells
Experiment: MTS assay, proliferation of A549 cells
Type: cell-based, human
Conditions: for proliferation of A549 cells: statement on Table 1; for IC50: read-out: IC50, anticancer activity against lung cancer
Procedure: Experimental procedure for MTS assay. To determine the efficacy of the compounds to cancer cells, a 3-(4,5-dimethylthiazol-2-yl)-5-(3-carboxymethoxyphenyl)-2-(4- sulfophenyl)-2H-tetrazolium inner salt (MTS) assay was used. A549 cells (ATCC, Manassas, Va.), representing a human lung carcinoma cell line, were plated on flat-bottomed 96-well plates in the presence of various concentrations of each compound. After incubation for up to 48 h at 37° C., the percentage of cell proliferation was determined with the MTS assay (Promega CellTiter 96 Aqueous Assay. Madison, Wis.), following the manufacturer's instruction.

[1] = A549 human lung carcinoma cells, MTS assay, incubation up to 48 h at 37° C.

CC1=C2C[C@H]3[C@@H](CC=C4C[C@@H](O)CC[C@@]43C)[C@@H]2CC[C@]12O[C@@H]1C[C@H](C)CN(Cc3cn([C@@H]4OC(CO)[C@@H](O)C(O)C4O)nn3)[C@H]1[C@H]2C (stereo partly drawn) [Example 3a, N-(1-(β-D-Glucopyranosyl)-1H-1,2,3-triazol-4-yl)methylcyclopamine]
proliferation of A549 cells (A549 cells, MTS assay): reduced the proliferation of A549 cells
IC50 [1]: 144 µM

CC1=C2C[C@H]3[C@@H](CC=C4C[C@@H](O)CC[C@@]43C)[C@@H]2CC[C@]12O[C@@H]1C[C@H](C)CN(Cc3cn([C@@H]4OC(CO)[C@@H](O[C@@H]5OC(CO)[C@H](O)C(O)C5O)C(O)C4O)nn3)[C@H]1[C@H]2C (stereo partly drawn) [Example 3d, N-(1-(4-O-(β-D-Galactopyranosyl)-β-D-glucopyranosyl)-1H-1,2,3-triazol-4-yl)methylcyclopamine]
proliferation of A549 cells (A549 cells, MTS assay): reduced the proliferation of A549 cells
IC50 (Homo sapiens, A549, 48 h): 183 µM

CC1=C2C[C@H]3[C@@H](CC=C4C[C@@H](O)CC[C@@]43C)[C@@H]2CC[C@]12O[C@@H]1C[C@H](C)CN(Cc3cn(C4OC(C)[C@H](O)C(O)[C@@H]4O)nn3)[C@H]1[C@H]2C (stereo partly drawn) [Example 3f, N-(1-(α-L-Rhamnopyranosyl)-1H-1,2,3-triazol-4-yl)methylcyclopamine]
proliferation of A549 cells compared with cyclopamine (A549 cells, MTS assay, comparison with cyclopamine): reduced the proliferation of A549 cells more than cyclopamine
proliferation of A549 cells (A549 cells, MTS assay): reduced the proliferation of A549 cells
IC50 [1]: 33 µM

CC1=C2C[C@H]3[C@@H](CC=C4C[C@@H](O)CC[C@@]43C)[C@@H]2CC[C@]12O[C@@H]1C[C@H](C)CN(Cc3cn([C@@H]4OC(CO)[C@@H](O[C@@H]5OC(CO)[C@@H](O[C@@H]6OC(CO)[C@@H](O)C(O)C6O)C(O)C5O)C(O)C4O)nn3)[C@H]1[C@H]2C (stereo partly shown) [Example 3k]
proliferation of A549 cells (A549 cells, MTS assay): reduced the proliferation of A549 cells
IC50 [1]: 96 µM

CC1=C2C[C@H]3[C@@H](CC=C4C[C@@H](O)CC[C@@]43C)[C@@H]2CC[C@]12O[C@@H]1C[C@H](C)CN[C@H]1[C@H]2C [cyclopamine]
IC50 (Homo sapiens, A549, 48 h): 49 µM
